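Briefly, cells in 96-well plates were exposed to five compound concentrations for 48 h, and endpoints were estimated by linear interpolation. The concentration for 50% growth inhibition is given as GI50.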 Active and inactive are the calls of the source. No stated cut-off is given here; in the data, active = GI50 up to about 1.1 µM and inactive = higher.
Tests used:
Test in all cases: NCI tumour cell line growth inhibition, 48 h
SR = system: SR
NCI-H226 = system: NCI-H226
SNB-19 = system: SNB-19
NCI-H460 = system: NCI-H460
LOX IMVI = system: LOX IMVI
K562 = system: K562
NCI-H522 = system: NCI-H522
UACC-62 = system: UACC-62
MOLT-4 = system: MOLT-4
COLO 205 = system: COLO 205
OVCAR-8 = system: OVCAR-8
SF-295 = system: SF-295
HT-29 = system: HT-29
UO-31 = system: UO-31
CCRF-CEM = system: CCRF-CEM
A498 = system: A498
RPMI-8226 = system: RPMI-8226

Structure (SMILES) | GI50 (SR) | GI50 (NCI-H226) | GI50 (SNB-19) | GI50 (NCI-H460) | GI50 (LOX IMVI) | GI50 (K562) | GI50 (NCI-H522) | GI50 (UACC-62) | GI50 (MOLT-4) | GI50 (COLO 205) | GI50 (OVCAR-8) | GI50 (SF-295) | GI50 (HT-29) | GI50 (UO-31) | GI50 (CCRF-CEM) | GI50 (A498) | GI50 (RPMI-8226)
COc1ccc(/C=c2/sc3n(c2=O)NC2(CCCCC2)NN=3)cc1 | > 100 µM (inactive) | > 100 µM (inactive) | > 100 µM (inactive) | > 100 µM (inactive) | > 100 µM (inactive) | > 100 µM (inactive) | > 100 µM (inactive) | > 100 µM (inactive) | > 100 µM (inactive) | > 100 µM (inactive) | > 100 µM (inactive) | > 100 µM (inactive) | > 100 µM (inactive) | > 100 µM (inactive) | > 100 µM (inactive) | – | –
NC(=O)c1ccc(Cl)c([N+](=O)[O-])c1 | – | > 100 µM (inactive) | > 100 µM (inactive) | > 100 µM (inactive) | > 100 µM (inactive) | > 100 µM (inactive) | 48.9 µM (inactive) | > 100 µM (inactive) | > 100 µM (inactive) | > 100 µM (inactive) | > 100 µM (inactive) | > 100 µM (inactive) | > 100 µM (inactive) | > 100 µM (inactive) | > 100 µM (inactive) | > 100 µM (inactive) | > 10 µM (inactive)
CCOC(=O)C1N(S(=O)(=O)c2ccc(C)cc2)CCC12c1ccccc1N(C(C)=O)C2C(/C=C/C(=O)OC)=C/C(=O)OC (stereo not given) | – | > 100 µM (inactive) | > 100 µM (inactive) | > 100 µM (inactive) | > 100 µM (inactive) | 85.3 µM (inactive) | > 100 µM (inactive) | > 100 µM (inactive) | – | > 100 µM (inactive) | > 100 µM (inactive) | > 100 µM (inactive) | > 100 µM (inactive) | > 100 µM (inactive) | > 100 µM (inactive) | > 100 µM (inactive) | 62.5 µM (inactive)
N#Cc1ccc(OCCSCCCCCCCCCCSCCOc2ccc(C#N)cc2)cc1 | – | > 100 µM (inactive) | – | > 100 µM (inactive) | > 100 µM (inactive) | > 100 µM (inactive) | 29.6 µM (inactive) | > 100 µM (inactive) | > 100 µM (inactive) | > 100 µM (inactive) | > 100 µM (inactive) | 22.6 µM (inactive) | – | 0.402 µM (active) | > 100 µM (inactive) | > 100 µM (inactive) | > 100 µM (inactive)
COC(=O)C1=CC2OC1(C)C1(CC1)C2=O (stereo not given) | 10.3 µM (inactive) | 21.6 µM (inactive) | > 100 µM (inactive) | 22.6 µM (inactive) | 14 µM (inactive) | 12.2 µM (inactive) | 5.73 µM (inactive) | – | 6.92 µM (inactive) | 13.5 µM (inactive) | 16 µM (inactive) | 19 µM (inactive) | 12.9 µM (inactive) | 22.1 µM (inactive) | 5.6 µM (inactive) | – | 6.85 µM (inactive)
COC1(OC)CCCCC2c3cccc(OC(C)=O)c3C21OC(C)=O (stereo not given) | 59.2 µM (inactive) | > 100 µM (inactive) | > 100 µM (inactive) | > 10 µM (inactive) | > 100 µM (inactive) | 55.3 µM (inactive) | > 100 µM (inactive) | > 100 µM (inactive) | 64.3 µM (inactive) | > 100 µM (inactive) | > 100 µM (inactive) | > 100 µM (inactive) | > 100 µM (inactive) | 51.6 µM (inactive) | > 100 µM (inactive) | – | 54 µM (inactive)
C=CCO/N=C(\OC(=O)c1ccc([N+](=O)[O-])cc1)c1ccccc1 | – | > 100 µM (inactive) | > 100 µM (inactive) | > 100 µM (inactive) | – | > 100 µM (inactive) | – | > 100 µM (inactive) | – | > 100 µM (inactive) | > 100 µM (inactive) | > 100 µM (inactive) | > 100 µM (inactive) | > 100 µM (inactive) | > 100 µM (inactive) | > 100 µM (inactive) | > 100 µM (inactive)
CC1(C)CC(=O)C(=[N+]=[N-])C(=O)C1 | – | > 100 µM (inactive) | > 100 µM (inactive) | – | > 100 µM (inactive) | > 100 µM (inactive) | > 100 µM (inactive) | > 100 µM (inactive) | – | > 100 µM (inactive) | – | > 100 µM (inactive) | > 100 µM (inactive) | – | > 100 µM (inactive) | – | > 100 µM (inactive)
COC(=O)C1C(=O)N(CCc2c[nH]c3ccccc23)C[C@@H]2CCC(=O)C[C@H]12 (stereo not given in full) | – | – | > 100 µM (inactive) | > 100 µM (inactive) | > 100 µM (inactive) | > 100 µM (inactive) | > 100 µM (inactive) | > 100 µM (inactive) | > 100 µM (inactive) | > 100 µM (inactive) | > 100 µM (inactive) | > 100 µM (inactive) | > 100 µM (inactive) | > 100 µM (inactive) | > 100 µM (inactive) | > 100 µM (inactive) | > 100 µM (inactive)

— ChEMBL document CHEMBL1201862, “PubChem BioAssay data set” (2004)
